Measured values reported in ChEMBL document CHEMBL1201862, “PubChem BioAssay data set” (2004).
The source made the active and inactive calls.

Legend:
Aminopeptidase N = target: T1, Aminopeptidase N (Plasmodium falciparum FcB1/Columbia, UniProt O96935); assay: malaria alanyl aminopeptidase activity blockers – biochemical, fluorogenic H-Leu-NHMec substrate, 1536-well (AID 1445); parameters: species or system Plasmodium falciparum 3D7, 3D7
T1 sequence (O96935 whole entry): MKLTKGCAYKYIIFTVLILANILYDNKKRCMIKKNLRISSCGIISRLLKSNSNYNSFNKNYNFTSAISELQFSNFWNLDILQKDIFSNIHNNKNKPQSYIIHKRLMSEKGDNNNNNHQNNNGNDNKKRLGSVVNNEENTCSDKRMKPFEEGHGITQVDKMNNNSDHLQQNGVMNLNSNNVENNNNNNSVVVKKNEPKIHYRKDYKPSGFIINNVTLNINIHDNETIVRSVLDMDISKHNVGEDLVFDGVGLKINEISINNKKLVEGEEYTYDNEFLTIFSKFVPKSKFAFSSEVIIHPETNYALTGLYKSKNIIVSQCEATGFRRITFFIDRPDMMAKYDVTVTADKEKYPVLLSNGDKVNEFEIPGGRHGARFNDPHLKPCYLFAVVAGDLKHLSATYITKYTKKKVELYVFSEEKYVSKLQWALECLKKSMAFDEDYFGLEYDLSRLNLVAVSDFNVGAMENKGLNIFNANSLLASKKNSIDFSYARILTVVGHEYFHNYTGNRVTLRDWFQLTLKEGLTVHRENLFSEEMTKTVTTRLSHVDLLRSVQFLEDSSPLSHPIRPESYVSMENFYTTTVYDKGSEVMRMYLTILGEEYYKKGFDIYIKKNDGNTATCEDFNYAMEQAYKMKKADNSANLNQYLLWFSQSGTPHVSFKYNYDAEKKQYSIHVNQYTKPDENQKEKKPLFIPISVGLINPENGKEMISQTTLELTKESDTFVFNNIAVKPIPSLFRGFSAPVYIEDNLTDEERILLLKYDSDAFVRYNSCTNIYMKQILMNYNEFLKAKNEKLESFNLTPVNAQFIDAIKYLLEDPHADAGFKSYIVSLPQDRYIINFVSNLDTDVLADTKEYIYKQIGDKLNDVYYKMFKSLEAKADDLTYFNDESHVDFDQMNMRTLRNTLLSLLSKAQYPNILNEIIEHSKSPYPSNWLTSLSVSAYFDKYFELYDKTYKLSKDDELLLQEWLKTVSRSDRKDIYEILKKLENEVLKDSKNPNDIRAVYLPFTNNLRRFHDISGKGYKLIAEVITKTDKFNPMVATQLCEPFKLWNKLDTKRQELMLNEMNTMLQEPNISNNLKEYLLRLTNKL

[1] = target: T2, Polyadenylate-binding protein 1 (Homo sapiens, UniProt P11940); assay: MLLE binding blockers, Cy5 peptide tracer – biochemical, fluorescence polarization, Cy5-PAM2 peptide, secondary, miRNA deadenylation inhibitor project, dose response (AID 602260); format: functional; details: read-out: IC50_Mean
T2 sequence (P11940 whole entry): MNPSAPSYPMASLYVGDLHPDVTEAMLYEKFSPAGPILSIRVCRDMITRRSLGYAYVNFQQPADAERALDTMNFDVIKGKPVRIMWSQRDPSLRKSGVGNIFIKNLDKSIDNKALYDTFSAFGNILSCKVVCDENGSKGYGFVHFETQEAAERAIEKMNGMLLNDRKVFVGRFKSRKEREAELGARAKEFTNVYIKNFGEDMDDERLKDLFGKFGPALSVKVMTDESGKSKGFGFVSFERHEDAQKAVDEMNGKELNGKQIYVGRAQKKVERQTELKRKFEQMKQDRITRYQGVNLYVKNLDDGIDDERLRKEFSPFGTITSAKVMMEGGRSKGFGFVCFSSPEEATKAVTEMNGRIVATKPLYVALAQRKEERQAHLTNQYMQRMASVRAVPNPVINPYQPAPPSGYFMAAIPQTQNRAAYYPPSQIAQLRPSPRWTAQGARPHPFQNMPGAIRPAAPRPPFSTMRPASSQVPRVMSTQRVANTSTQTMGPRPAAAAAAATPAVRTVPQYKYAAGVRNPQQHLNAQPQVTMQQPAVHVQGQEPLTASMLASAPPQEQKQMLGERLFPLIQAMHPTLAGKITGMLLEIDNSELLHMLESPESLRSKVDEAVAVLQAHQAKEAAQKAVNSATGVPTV

Leucine aminopeptidase = target: T3, Leucine aminopeptidase (Plasmodium falciparum 3D7, UniProt Q8IL11); assay: P. falciparum M17LAP inhibitors, primary screen, biochemical, fluorogenic H-Leu-NHMec substrate, 1536-well (AID 1619); format: functional
T3 sequence (Q8IL11 whole entry): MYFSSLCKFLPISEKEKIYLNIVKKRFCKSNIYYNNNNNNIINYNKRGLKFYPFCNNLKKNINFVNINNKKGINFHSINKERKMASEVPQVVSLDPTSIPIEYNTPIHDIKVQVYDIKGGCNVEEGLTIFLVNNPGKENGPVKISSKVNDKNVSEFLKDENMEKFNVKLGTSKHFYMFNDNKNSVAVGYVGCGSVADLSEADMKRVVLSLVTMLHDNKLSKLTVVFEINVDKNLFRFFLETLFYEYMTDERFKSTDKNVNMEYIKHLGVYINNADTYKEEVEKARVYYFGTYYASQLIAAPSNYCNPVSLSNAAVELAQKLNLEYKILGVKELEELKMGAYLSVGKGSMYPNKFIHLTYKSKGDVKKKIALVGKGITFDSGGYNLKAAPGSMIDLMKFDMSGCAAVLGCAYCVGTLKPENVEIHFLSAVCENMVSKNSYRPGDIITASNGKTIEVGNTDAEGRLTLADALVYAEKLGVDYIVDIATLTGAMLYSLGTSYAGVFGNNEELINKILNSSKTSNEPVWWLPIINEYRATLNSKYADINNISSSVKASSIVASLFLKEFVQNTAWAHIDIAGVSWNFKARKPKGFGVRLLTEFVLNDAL

[2] = target: T2, Polyadenylate-binding protein 1; assay: MLLE domain peptide-binding blockers, IC50 – biochemical, fluorescence polarization, FITC-PAM2 peptide, dose response (AID 602259); format: functional; details: read-out: IC50_Mean
H9c2 = assay: cells; format: functional, cell-based; details: Rattus norvegicus, H9c2, Myocardium
[3] = target: Glucose-6-phosphate 1-dehydrogenase (Homo sapiens, UniProt P11413); assay: inhibition of Homo sapiens G6PD, dose series – biochemical, fluorescence, selectivity assay for P. falciparum G6PD inhibitor project, dose response (AID 504792); format: functional
Chain of Glucose-6-phosphate 1-dehydrogenase (P11413 whole entry): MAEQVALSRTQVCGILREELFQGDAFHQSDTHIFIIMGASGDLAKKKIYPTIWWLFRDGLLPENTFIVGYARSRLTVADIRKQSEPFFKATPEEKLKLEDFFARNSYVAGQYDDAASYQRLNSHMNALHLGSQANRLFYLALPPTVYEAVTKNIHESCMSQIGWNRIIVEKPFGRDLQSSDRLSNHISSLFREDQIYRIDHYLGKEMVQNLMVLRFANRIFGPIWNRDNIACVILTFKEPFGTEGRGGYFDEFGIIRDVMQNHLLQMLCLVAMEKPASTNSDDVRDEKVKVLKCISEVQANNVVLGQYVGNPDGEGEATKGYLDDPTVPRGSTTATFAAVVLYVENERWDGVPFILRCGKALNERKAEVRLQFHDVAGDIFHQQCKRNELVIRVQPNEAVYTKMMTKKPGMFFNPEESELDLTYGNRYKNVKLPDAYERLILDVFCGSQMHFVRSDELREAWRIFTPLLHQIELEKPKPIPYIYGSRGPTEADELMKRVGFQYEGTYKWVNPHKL

[4] = target: FAD-linked sulfhydryl oxidase ALR (Homo sapiens, UniProt P55789); assay: ALR-catalysed DTT oxidation blockers – biochemical, H2O2 detection, luminescence, cherry-pick, dose response (AID 493248)
Chain of FAD-linked sulfhydryl oxidase ALR (P55789 whole entry): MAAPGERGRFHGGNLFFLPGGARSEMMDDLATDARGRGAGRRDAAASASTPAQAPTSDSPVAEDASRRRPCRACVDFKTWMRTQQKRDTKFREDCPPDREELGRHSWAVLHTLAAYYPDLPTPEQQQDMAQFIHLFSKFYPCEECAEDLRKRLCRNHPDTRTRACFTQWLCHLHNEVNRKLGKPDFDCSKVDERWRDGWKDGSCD

[5] = viability of HCT116 lacking mutant beta-catenin – cell-based, human colon tumor, dose response (AID 1045); format: functional;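 further: HCT116 colon tumor cells with beta catenin knocked out; cells exposed to compound for 60 hours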
[6] = viability of PTEN-deleted HCT116 cells – cell-based, HCT116 PTEN knockout, dose response (AID 1047); format: functional;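 further: HCT116 colon tumor cells with PTEN knocked out; cells exposed to compound for 60 hours before readout; potency for loss of cell viability measured by luminescence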
[7] = target: T4, Heat shock factor protein 1 (Mus musculus, UniProt P38532); assay: decrease of HSF1-responsive luciferase luminescence – cell-based, NIH3T3, dose retest, confirmation (AID 2382); format: functional;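 further: NIH3T3 fibroblasts with HSF1-driven luciferase reporter stressed by proteasome inhibitor MG132; luminescence from HSF1-driven luciferase expression after 8 hours of MG132 stress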
T4 sequence (P38532 whole entry): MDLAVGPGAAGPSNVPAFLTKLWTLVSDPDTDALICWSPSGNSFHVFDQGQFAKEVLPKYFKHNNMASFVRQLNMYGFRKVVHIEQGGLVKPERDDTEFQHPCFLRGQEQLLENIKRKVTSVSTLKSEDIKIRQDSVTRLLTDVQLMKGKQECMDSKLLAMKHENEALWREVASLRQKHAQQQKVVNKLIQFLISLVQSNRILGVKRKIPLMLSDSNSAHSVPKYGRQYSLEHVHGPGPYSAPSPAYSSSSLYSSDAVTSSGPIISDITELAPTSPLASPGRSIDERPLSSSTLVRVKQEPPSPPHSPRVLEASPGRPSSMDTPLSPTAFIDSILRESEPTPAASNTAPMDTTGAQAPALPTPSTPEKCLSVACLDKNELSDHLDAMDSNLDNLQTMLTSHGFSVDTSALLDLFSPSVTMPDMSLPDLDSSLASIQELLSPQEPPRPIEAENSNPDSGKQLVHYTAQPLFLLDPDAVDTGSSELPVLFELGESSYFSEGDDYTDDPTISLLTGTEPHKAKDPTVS

Large T antigen = Large T antigen (Simian virus 40, UniProt P03070); format: functional, Betapolyomavirus macacae;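 further: Confirmatory-stage PubChem screen for compounds that inhibit SV40 T antigen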
Chain of Large T antigen (P03070 whole entry): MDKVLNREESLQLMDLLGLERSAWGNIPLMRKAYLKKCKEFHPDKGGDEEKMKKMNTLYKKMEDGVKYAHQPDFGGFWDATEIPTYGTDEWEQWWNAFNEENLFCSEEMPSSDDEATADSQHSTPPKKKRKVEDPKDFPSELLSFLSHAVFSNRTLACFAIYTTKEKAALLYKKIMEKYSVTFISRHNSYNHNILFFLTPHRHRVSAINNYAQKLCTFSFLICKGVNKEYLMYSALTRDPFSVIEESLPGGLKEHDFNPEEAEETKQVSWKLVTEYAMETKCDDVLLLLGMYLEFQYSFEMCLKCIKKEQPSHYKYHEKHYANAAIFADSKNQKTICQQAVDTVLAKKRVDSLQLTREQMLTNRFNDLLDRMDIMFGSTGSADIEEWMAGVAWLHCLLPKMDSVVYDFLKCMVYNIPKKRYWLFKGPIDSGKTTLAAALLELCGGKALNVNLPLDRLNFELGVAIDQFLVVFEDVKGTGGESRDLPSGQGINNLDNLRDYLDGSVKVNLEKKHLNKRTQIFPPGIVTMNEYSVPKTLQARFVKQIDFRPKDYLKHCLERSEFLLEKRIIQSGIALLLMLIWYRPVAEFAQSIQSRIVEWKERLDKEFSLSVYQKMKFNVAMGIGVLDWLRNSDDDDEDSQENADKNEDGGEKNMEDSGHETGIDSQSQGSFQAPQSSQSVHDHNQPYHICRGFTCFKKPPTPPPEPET

[8] = target: T4, Heat shock factor protein 1; assay: enhancement of HSF1-driven luciferase signal – cell-based, NIH3T3, luminescence, dose retest, confirmation (AID 435004); format: functional;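 further: stress induced by proteasome inhibitor MG132 added 30 min after compound; luciferase reporter driven by HSF1 response element in NIH3T3 cells; actives raise luminescence as potentiators of the MG132 stress response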
Cytochrome P450 2C19 = Cytochrome P450 2C19 (Homo sapiens, UniProt P33261); assay: Cytochrome panel assay with activity outcomes. Panel member name: p450-cyp2c19 Compounds with AC50 equal or less than 10 uM are considered active; format: functional; details: read-out: AC50
Chain of Cytochrome P450 2C19 (P33261 whole entry): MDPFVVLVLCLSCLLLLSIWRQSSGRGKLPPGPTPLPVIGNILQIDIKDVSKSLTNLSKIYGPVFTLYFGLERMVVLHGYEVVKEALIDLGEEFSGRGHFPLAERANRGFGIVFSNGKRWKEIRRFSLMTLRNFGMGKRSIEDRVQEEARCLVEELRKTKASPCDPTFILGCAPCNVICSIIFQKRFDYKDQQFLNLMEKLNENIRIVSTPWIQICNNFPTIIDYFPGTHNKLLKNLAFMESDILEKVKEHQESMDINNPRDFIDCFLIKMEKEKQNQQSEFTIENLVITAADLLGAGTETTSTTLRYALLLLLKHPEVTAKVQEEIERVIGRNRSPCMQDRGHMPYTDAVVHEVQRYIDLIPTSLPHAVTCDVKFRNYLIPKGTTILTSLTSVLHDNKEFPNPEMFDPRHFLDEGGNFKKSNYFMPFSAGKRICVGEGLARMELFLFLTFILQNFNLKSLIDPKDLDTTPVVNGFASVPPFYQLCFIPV

Streptococcus = assay: GAS UMAA2166 growth inhibition – luminescence, BacTiterGlo, counter-screen for streptokinase expression inhibitor project, dose response (AID 1915); format: functional, organism-based;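 further: potency for reduction of bacterial viability or growth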
[9] = system: Streptococcus sp. 'group A'; assay: Streptococcus pyogenes SK(-)GAS viability under kanamycin – luminescence, BacTiterGlo, confirmation, counter-screen for streptokinase expression inhibitor project, dose response (AID 1900); format: functional, organism-based
Cytochrome P450 2D6 = Cytochrome P450 2D6 (Homo sapiens, UniProt P10635);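 further: CYP2D6 member of a cytochrome P450 panel assay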
Chain of Cytochrome P450 2D6 (P10635 whole entry): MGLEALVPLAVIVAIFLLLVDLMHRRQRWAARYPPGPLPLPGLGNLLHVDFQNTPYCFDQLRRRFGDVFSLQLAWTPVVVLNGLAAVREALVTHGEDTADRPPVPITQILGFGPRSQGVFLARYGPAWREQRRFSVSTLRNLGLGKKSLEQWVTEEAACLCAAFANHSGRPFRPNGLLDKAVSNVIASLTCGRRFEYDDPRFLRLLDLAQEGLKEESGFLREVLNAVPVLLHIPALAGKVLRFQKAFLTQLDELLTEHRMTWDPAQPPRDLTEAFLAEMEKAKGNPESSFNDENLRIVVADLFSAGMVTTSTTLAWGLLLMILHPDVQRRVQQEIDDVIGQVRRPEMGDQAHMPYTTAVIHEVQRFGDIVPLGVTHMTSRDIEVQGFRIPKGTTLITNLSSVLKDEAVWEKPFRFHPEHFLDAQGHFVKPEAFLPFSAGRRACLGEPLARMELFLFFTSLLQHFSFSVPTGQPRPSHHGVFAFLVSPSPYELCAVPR

## CNC(=O)c1cc2c(=O)n3cccc(C)c3nc2n(C(C)C)c1=N
Aminopeptidase N
  IC50: 65.6 µM (active)

## CCOc1cc(C2C3=C(O)CCCC3=NC3=C2C(=O)CCC3)cc(Cl)c1O (stereo unspecified)
Aminopeptidase N
  IC50: 23.9 µM (active)

## CC(Sc1ccc2c(c1)OCCO2)C(=O)Nc1ncc(Cl)cc1Cl (stereo unspecified)
[1]
  IC50: > 66 µM (inactive)
Leucine aminopeptidase
  IC50: 3.8 µM (active)
[2]
  IC50: > 66 µM (inactive)

## CC(=O)Nc1cccc(NC(=O)C2CCCN2C(=O)Nc2cccc(C)c2)c1 (stereo unspecified)
Aminopeptidase N
  IC50: 39.1 µM (active)

## O=C(O)CSc1c(O)nc2ccc(Cl)cc2c1-c1ccccc1
Aminopeptidase N
  IC50: 41 µM (active)

## COc1ccc(-c2cc(=O)c3ccccc3[nH]2)cc1
H9c2
  IC50: > 79 µM (inactive)

## Nc1nc(SCc2nc(-c3ccccc3)no2)[nH]c(=O)c1-c1ccccc1
Leucine aminopeptidase
  IC50: 7.2 µM (active)

## COc1ccc(N2C(=O)/C(=C/c3cccs3)NC2=S)cc1
[3]
  IC50: > 80 µM (inactive)

## CCN(CC)CCC(c1ccc(N(C)C)cc1)c1c(OC)cc(OC)c2ccc(=O)oc12 (stereo unspecified)
[4]
  AC50: 3.28 µM (active)

## COc1ccc(/C=C/C(=O)c2ccc(NC(=O)c3cccs3)cc2)cc1OC
[5]
  EC50: 3.01 µM (active)
[6]
  EC50: 3.5 µM (active)

## O=C(Nc1nnc(S(=O)(=O)N2CCOCC2)s1)c1cccc(Br)c1
[3]
  IC50: > 80 µM (inactive)

## CCOC(=O)Cc1csc(NC(=O)NC2(C(F)(F)F)Oc3cc(Cl)c(Cl)cc3O2)n1
[7]
  EC50: > 195 µM (not active)
Leucine aminopeptidase
  IC50: 27.7 µM (active)

## COc1cc(SC)ccc1C(=O)Nc1c(Cl)cncc1Cl
[4]
  AC50: 0.867 µM (active)

## CCOC(=O)c1nc(Nc2ccc(C(C)=O)cc2)c2ccccc2n1
H9c2
  IC50: 8.56 µM (active)

## CC1SC(C)C(=O)N(CC(=O)NCc2ccc(F)cc2)C1=O (stereo unspecified)
Leucine aminopeptidase
  IC50: 31.4 µM (active)

## C=CCn1c(S)nnc1-c1cccc(OC)c1
[4]
  AC50: 7.27 µM (active)

## COc1cccc(C(=O)NC2CCN(CC(=O)NCc3ccccc3OC)CC2)c1
Aminopeptidase N
  IC50: 26.9 µM (active)

## CS(=O)(=O)N1CCc2cc(C(=O)Nc3ccc(O)cc3)ccc21
Large T antigen
  IC50: > 100 µM (active)
[4]
  AC50: 3.92 µM (active)

## COc1ccc(C(=O)Nc2sc3c(c2C(=O)O)CC(C)(C)OC3)cc1
[3]
  IC50: > 80 µM (inactive)

## Cc1ccc(C(=O)Nc2ccc(Oc3ccc(C(=O)O)c(C(=O)O)c3)cc2)cc1C
Leucine aminopeptidase
  IC50: 13.2 µM (active)

## COc1ccc2c(c1)O[C@H](c1ccc3c(c1)OCO3)[C@@H](OC(=O)N[C@H](C)C1CCCCC1)C2=O
[5]
  EC50: 10.4 µM (active)
[6]
  EC50: 11.6 µM (active)

## Cc1csc(SC(C)C(=O)Nc2ccc(Cl)cn2)n1 (stereo unspecified)
Leucine aminopeptidase
  IC50: 6.63 µM (active)

## CCCS(=O)(=O)N1CCCC(C(=O)NCCN(CC)c2ccccc2)C1 (stereo unspecified)
[4]
  AC50: 0.33 µM (active)

## NC(=O)c1nsc(C(=O)N(Cc2ccco2)C(C(=O)NCc2ccccc2)c2ccc(O)cc2)c1N (stereo unspecified)
H9c2
  IC50: > 79 µM (inactive)

## CCOC(=O)c1c(C)[nH]c(C)c1C(=O)COc1ncnc2cc([N+](=O)[O-])ccc12
[8]
  EC50: > 260 µM (inactive)
H9c2
  IC50: 26.4 µM (active)

## CC(C)n1cnc2cc(NCc3ccccc3O)ccc21
[4]
  AC50: 1.44 µM (active)

## O=C(Cn1c(SCc2ccccc2)nc2ccccc21)N1CCOCC1
Aminopeptidase N
  IC50: 48.7 µM (active)

## CC(OC(=O)CCc1nc(O)c2ccccc2n1)C(=O)NCc1ccc2c(c1)OCO2 (stereo unspecified)
H9c2
  IC50: > 79 µM (inactive)

## Cc1ccc(NC(=O)Nc2cccs2)cc1
[4]
  AC50: 6.23 µM (active)

## Cn1c(C(=O)O)c(CC(=O)NCC2COc3ccccc3O2)c2ccccc21 (stereo unspecified)
Cytochrome P450 2C19
  AC50: 25.1 µM (inconclusive)
Leucine aminopeptidase
  IC50: 15.7 µM (active)

## CC(=O)Nc1ccc(NS(=O)(=O)c2cc(-c3nnc(O)c4ccccc34)ccc2C)cc1
H9c2
  IC50: > 79 µM (inactive)

## NS(=O)(=O)c1ccc(CCNc2ccn3nc(-c4ccc(OCCN5CCOCC5)cc4)cc3n2)cc1
H9c2
  IC50: > 79 µM (inactive)

## Oc1c(Br)cc(Cl)cc1/C=N/c1ccccc1Br
H9c2
  IC50: > 79 µM (inactive)

## Nc1nonc1-c1nc2ccccc2n1CC(=O)N/N=C/c1ccc(-c2cccc(C(=O)O)c2)o1
Aminopeptidase N
  IC50: 12.5 µM (active)
Streptococcus
  EC50: 4.63 µM (active)
[9]
  EC50: 4.28 µM (active)

## Cc1ccc([N+](=O)[O-])cc1/N=N/c1c(C)[nH]n(C(N)=S)c1=O
[4]
  AC50: 5.04 µM (active)

## Cc1ccsc1/C=N/NC(=O)c1cccc(S(=O)(=O)Nc2ccccc2Cl)c1
[3]
  IC50: > 80 µM (inactive)

## Cn1c(=O)c2c(nc(N/N=C/c3ccc(OC(=O)c4ccco4)cc3)n2Cc2ccccc2Cl)n(C)c1=O
[5]
  EC50: 14.6 µM (active)
[6]
  EC50: 13.4 µM (active)

## COc1ccc(/C=N/NC(=O)CCCOc2ccc(Cl)cc2Cl)cc1[N+](=O)[O-]
[5]
  EC50: 59.7 µM (active)
[6]
  EC50: 281 µM (active)
Cytochrome P450 2D6
  AC50: 10 µM (inconclusive)
